# In patent US20090028925A1, “Novel Phosphinic Acid-Containing Thyromimetics” (priority 2005, published 2009):
# pKi: −log10 of the molar value. Where two headings read alike, the source gives them in different places.
# Assays:
# plasma cholesterol = test: Cholesterol lowering in hypercholesterolemic rats; format: in vivo; conditions: delivered p.o. (0.5 mg/kg/d); percentage change from pre-dose cholesterol
# [1] = target: T1, human thyroid hormone receptors TRβ1 (Homo sapiens, UniProt P10828); test: Receptor binding to TRβ1 (gel filtration and scintillation proximity assay, labeled T3)
# T1 construct: made in house; host or cells: Sf9 insect cells (baculovirus)
# T1 sequence (P10828 1-461): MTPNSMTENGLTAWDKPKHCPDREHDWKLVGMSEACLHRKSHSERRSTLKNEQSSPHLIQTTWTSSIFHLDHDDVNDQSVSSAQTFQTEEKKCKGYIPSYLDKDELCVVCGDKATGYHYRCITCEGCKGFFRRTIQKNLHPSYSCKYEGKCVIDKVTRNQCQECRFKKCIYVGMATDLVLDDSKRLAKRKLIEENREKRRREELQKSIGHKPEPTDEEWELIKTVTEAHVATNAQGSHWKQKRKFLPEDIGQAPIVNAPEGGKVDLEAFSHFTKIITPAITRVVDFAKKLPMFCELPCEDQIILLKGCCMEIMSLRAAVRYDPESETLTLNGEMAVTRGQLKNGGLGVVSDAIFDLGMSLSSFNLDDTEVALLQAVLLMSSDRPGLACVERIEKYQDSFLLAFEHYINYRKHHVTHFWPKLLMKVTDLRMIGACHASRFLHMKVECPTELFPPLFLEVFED
# T1 sequence (P19793 1-462 partner): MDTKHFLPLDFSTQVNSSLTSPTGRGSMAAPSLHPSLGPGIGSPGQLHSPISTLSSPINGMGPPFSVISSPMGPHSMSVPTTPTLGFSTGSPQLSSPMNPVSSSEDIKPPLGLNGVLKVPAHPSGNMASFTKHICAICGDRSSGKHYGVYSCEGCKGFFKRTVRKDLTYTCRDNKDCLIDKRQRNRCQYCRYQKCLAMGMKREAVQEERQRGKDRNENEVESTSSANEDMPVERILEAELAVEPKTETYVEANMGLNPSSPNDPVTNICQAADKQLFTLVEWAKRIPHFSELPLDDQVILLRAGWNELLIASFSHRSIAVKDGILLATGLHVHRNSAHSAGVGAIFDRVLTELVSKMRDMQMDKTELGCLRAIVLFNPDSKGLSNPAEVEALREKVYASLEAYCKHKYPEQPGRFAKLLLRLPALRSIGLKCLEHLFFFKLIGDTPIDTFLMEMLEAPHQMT
# Method: (§1) Methods: Baculoviruses expressing TRα1, TRβ1 and RXRα were generated using cDNA and other reagents from Invitrogen (Carlsbad, Calif.). To produce TR/RXR heterodimer proteins, the sf9 insect cells were first grown to a density of 1-5×10^5 cells/mL. […] and RXRα baculovirus stocks were added to the cell culture with a ratio of 1 to 1 (multiplicity of infection=10). The cells were harvested three days after the infection.
# (§2) Binding of compounds to either the TRα1 or TRβ1 were also performed by means of scintillation proximity assays (SPA). The SPA assay, a common method used for the quantitation of receptor-ligand equilibria, makes use of special beads coated with a scintillant and a capture molecule, copper, which binds to the histidine-tagged α or β receptor.
# [2] = target: T2, human thyroid hormone receptors TRα1 (Homo sapiens, UniProt P10827); test: Receptor binding to TRα1 (gel filtration and scintillation proximity assay, labeled T3)
# T2 construct: made in house; host or cells: Sf9 insect cells (baculovirus)
# T2 sequence (P10827 1-410 isoform P10827-2): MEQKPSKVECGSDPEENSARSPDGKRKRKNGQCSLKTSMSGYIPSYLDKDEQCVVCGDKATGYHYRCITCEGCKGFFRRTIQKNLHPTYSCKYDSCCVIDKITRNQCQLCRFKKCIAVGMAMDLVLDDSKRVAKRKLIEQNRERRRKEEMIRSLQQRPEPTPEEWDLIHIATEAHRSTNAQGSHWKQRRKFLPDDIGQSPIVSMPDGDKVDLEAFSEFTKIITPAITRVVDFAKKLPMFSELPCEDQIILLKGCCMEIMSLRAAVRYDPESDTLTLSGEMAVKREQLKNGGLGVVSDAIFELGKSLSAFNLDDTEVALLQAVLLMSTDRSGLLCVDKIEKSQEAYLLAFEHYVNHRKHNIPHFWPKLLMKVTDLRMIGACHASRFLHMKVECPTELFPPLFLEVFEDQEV
# T2 sequence (P19793 1-462 partner): T1 sequence (P19793 1-462 partner)
# Method: as §1, §2
"pKi ([1]; SPA data, read-out: Ki TRβ)","pKi ([2]; SPA data, read-out: Ki TRα)",Structure (SMILES),further results
< 5.70,< 5.70,"COc1ccc(Oc2c(C)cc(CCP(=O)(O)O)cc2C)cc1C(C)C [Compound 30, 2-[3,5-dimethyl-4-(3′-iso-propyl-4′-methoxyphenoxy)phenyl]ethylphosphonic acid]",–
7.02,6.55,"Cc1cc(CC(=O)CP(=O)(O)O)cc(C)c1Oc1ccc(O)c(C(C)C)c1 [Compound 32, 3-[3,5-dimethyl-4-(4′-hydroxy-3′-iso-propylphenoxy)]phenyl-2-oxopropylphosphonic acid]",–
< 5.70,< 5.70,"Cc1cc(OCP(=O)(O)O)cc(C)c1Cc1ccc(O)c(C(=O)O)c1 [Compound 35, [3,5-dimethyl-4-(3′-carboxyl-4′-hydroxy-benzyl)phenoxy]methylphosphonic acid]",–
6.97,< 5.70,"Cc1cc(OCP(=O)(O)O)cc(C)c1Cc1ccc(O)c(C(=O)NC(C)C)c1 [Compound 36, [3,5-dimethyl-4-(4′-hydroxy-3′-iso-propylcarbamoylbenzyl)-phenoxy]methylphosphonic acid]",–
7.24,< 5.70,"Cc1cc(OCP(=O)(O)O)cc(C)c1Cc1ccc(O)c(C(=O)c2ccc(F)cc2)c1 [Compound 39, [3,5-dimethyl-4-[3′-(4-fluoro-benzoyl)-4′-hydroxy-benzyl]phenoxy]methylphosphonic acid]",–
6.74,< 5.70,"Cc1cc(C(=O)CP(=O)(O)O)cc(C)c1Cc1ccc(O)c(Cc2ccccc2)c1 [Compound 41, [3,5-dimethyl-4-[3′-benzyl-4′-hydroxy-benzyl]benzoyl]methylphosphonic acid]",–
6.55,< 5.70,"CC(C)c1cc(Cc2c(Cl)cc(C(=O)CP(=O)(O)O)cc2Cl)ccc1F [Compound 41-3, 2-[3,5-dichloro-4-(4-fluoro-iso-propyl-benzyl)-phenyl]-2-oxo-ethylphosphonic acid]",–
6.97,6.44,"Cc1cc(OCP(=O)(O)O)cc(C)c1Sc1ccc(O)c(C(C)C)c1 [Compound 43, [3,5-dimethyl-4-S-[(4′-hydroxy-3′-iso-propylphenyl)sulfanyl]phenoxy]methylphosphonate]",–

# Further lines, the compound ahead of its results:
Structure (SMILES),"pKi ([1]; SPA data, read-out: Ki TRβ)","pKi ([2]; SPA data, read-out: Ki TRα)",further results
"CC(C)c1cc(Cc2c(Cl)cc(OC[P@@]3(=O)OCC[C@@H](c4cccc(Cl)c4)O3)cc2Cl)ccc1O (relative stereo) [Compound 13-11, Cis(S)-2-[(3,5-dichloro-4-(4′-hydroxy-3′-iso-propylbenzyl)phenoxy)methyl]-4-(3-chlorophenyl)-2-oxo-2λ^5-[1,3,2]-dioxaphosphonane]",–,–,% Cholesterol Lowering (plasma cholesterol): −24.8%
"Cc1cc(OCP(=O)(O)O)cc(C)c1C(=O)c1ccc(O)c(C(C)C)c1 [Compound 25, [3,5-dimethyl-4-(3′-iso-propyl-4′-hydroxybenzoyl)phenoxy]methylphosphonic acid]",–,–,pKi [1]: 6.44; pKi [2]: < 5.70
"Cc1cc(OCCP(=O)(O)O)cc(C)c1Cc1ccc(O)c(C(C)C)c1 [Compound 26, 2-[3,5-dimethyl-4-(3′-iso-propyl-4′-hydroxybenzyl)phenoxy]ethylphosphonic acid]",–,–,pKi ([1]; read-out: Ki TRβ): 7.06; pKi ([2]; read-out: Ki TRα): 6.23
"Cc1cc(OCP(=O)(O)O)cc(C)c1Cc1ccc(O)c(I)c1 [Compound 34, [3,5-dimethyl-4-(4′-hydroxy-3′-iodobenzyl)phenoxy]methylphosphonic acid]",8.19,6.93,–
"Cc1cc(OCP(=O)(O)O)cc(C)c1Cc1ccc(O)c(S(=O)(=O)C(C)C)c1 [Compound 44, [3,5-dimethyl-4-[4′-hydroxy-3′-(iso-propylsulfonyl)benzyl]phenoxy]methylphosphonic acid]",7.36,6.08,–
"Cc1cc(SCP(=O)(O)O)cc(C)c1Oc1ccc(O)c(C(C)C)c1 [Compound 54, [3,5-Dimethyl-4-(4′-hydroxy-3′-iso-propylphenoxy)benzenesulfanyl]methylphosphonic acid]",–,–,pKi ([1]; read-out: Ki TRβ): 7.38; pKi ([2]; read-out: Ki TRα): 6.84
